Bounds are passed on as bounds.

This data set can be described thus: Drug crystallization in media of different pH (PXRD). Format: physicochemical. As to the method:
PXRD was used to confirm the amorphous state of freshly prepared DLM ASDs and to detect drug crystallization in solution. […] Crystallization of the DLM salt was evaluated at predetermined time points. Drug crystallization in ASDs upon acidic incubation was conducted at the same drug concentration as in the dissolution testing: 20 mg of ASD powder was added to 50 mL of acidic solutions at pH 1.6, 3.0, or 5.0 and kept stirring at 300 rpm, 37 °C for 1 h.
Undissolved particles were collected by vacuum filtration and analyzed using a Rigaku Smartlab diffractometer (Rigaku Americas, The Woodlands, TX) equipped with a Cu–Kα radiation source and a D/tex ultradetector. Diffractograms were acquired with a scanning speed of 4°/min (4–40° 2θ) and 0.02° step size. The voltage and current were 40 kV and 44 mA, respectively.

`C[C@]1(COc2ccc(N3CCC(Oc4ccc(OC(F)(F)F)cc4)CC3)cc2)Cn2cc([N+](=O)[O-])nc2O1.O=S(=O)(O)CCS(=O)(=O)O` [DLM edisylate] registered a pHmax (crystallization to the free base observed at all pHs investigated) of under 1.6. The “immersion time at which evidence of crystalline free base was seen” value (neat amorphous salt in suspension, 37 °C) is listed as 5 min. In addition, the “crystallization of neat amorphous salt” value (pH 1.6 and 3.0) is recorded as “rapid”. For the same compound, the “rate of crystallization of neat amorphous salt” value (pH 5.0 and 6.5) is “much reduced”.
